Measurements taken from patent US6716837B1, “Heterocyclic compounds for the treatment of migraine” (NPS Allelix Biopharmaceuticals, Inc., priority 1999, dated 2004).

Biological target: T1, 5-HT1D receptor (Homo sapiens, UniProt P28221)
T1 construct: expressed in transfected cells
Assay: 5-HT1D receptor binding, inhibition of 3H-serotonin binding
Conditions: 100 nM test compound; 3H-serotonin 1 nM; membranes from recombinant cells; 60 minute incubation at 22° C.; read-out: percent inhibition of binding of the radio ligand at the 5-HT1D receptor
Method: Selected compounds of the previous examples, as well as reference compounds, were evaluated for binding affinity using cell types receptive specifically to 5-HT1D and 5-HT1B ligands. The assay protocol generally entailed the incubation of membranes prepared from cells expressing the 5-HT1D or 5-HT1B subtype of 5-HT receptors with ^3H-serotonin (1 nM for 5-HT1D and 2.5 nM for 5-HT1B). Specific concentrations of the test compound were incubated with the radio ligand and the membrane homogenates prepared from the recombinant cells. After a 60 minute incubation at 22° C., the incubation was terminated by vacuum filtration. The filters were washed with buffer and counted for radioactivity using liquid scintillation spectroscopy. The affinity of the test compound for the 5-HT1D receptor is expressed as the amount (in percent) of binding of the radio ligand that is inhibited in the presence of 100 nM of test compound. A greater percent inhibition indicates greater affinity for the 5-HT1D receptor.

T1 sequence (P28221 whole entry): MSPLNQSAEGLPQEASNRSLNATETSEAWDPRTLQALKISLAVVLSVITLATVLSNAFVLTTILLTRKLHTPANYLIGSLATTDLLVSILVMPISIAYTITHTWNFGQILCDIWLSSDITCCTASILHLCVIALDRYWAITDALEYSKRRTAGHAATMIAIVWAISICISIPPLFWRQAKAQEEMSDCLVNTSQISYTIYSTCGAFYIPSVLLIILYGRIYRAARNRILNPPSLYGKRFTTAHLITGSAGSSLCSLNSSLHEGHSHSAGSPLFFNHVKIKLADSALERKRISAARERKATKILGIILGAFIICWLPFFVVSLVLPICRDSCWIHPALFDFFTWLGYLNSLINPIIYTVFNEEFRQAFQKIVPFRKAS

For `Brc1ccc2ccn(C3CCNCC3)c2c1` [Example 10c, 6-Bromo-1-(4-piperidinyl)-indole], which inhibition at 0.1 µM is on record?
Its inhibition at 0.1 µM is over 50%.

`CC(C)n1ncc2ccc(CCN(C)C)cc21` [Example 14, 6-(2-(N,N-Dimethylamino)ethyl)-1-isopropyl-1H-indazole] was tested. Which inhibition at 0.1 µM did it give?
Its inhibition at 0.1 µM is over 90%.

For `CN(C)CCc1ccc2ccn(-c3cccnc3)c2c1` [Example 19f, 6-(2-Dimethylaminoethyl)-1-(3-pyridinyl)-indole], which inhibition at 0.1 µM is on record?
The inhibition at 0.1 µM was over 90%.

How did the inhibition at 0.1 µM turn out when `CN1CC=C(c2ccc3ccn(-c4cccnc4)c3c2)CC1` [Example 19d, 6-(N-Methyl-1,2,5,6-tetrahydropyridin-4-yl)-1-(3-pyridyl)-indole] was run?
Its inhibition at 0.1 µM is over 75%.

Which inhibition at 0.1 µM does the source give for `CC(C)n1ccc2ccc(C3=CCN(C)CC3)cc21` [Example 16c, 6-[N-Methyl-1,2,5,6-tetrahydropyridin-4-yl]-1-isopropyl-indole] here?
The inhibition at 0.1 µM was over 50%.

How did the inhibition at 0.1 µM turn out when `CN1CC=C(c2ccc3ccn(-c4nccs4)c3c2)CC1` [Example 19i, 6-(N-Methyl-1,2,5,6-tetrahydropyridin-4-yl)-1-(2-thiazolyl)-indole] was run?
Its inhibition at 0.1 µM is over 50%.

Which inhibition at 0.1 µM does the source give for `CN1CC=C(c2ccc3ccn(-c4ccc(F)cc4)c3c2)CC1` [Example 19, 1-(4-Fluorophenyl)-6-(N-methyl-1,2,5,6-tetrahydropyridin-4-yl)-indole] here?
The inhibition at 0.1 µM was over 75%.

For `CN(C)CCc1ccc2ccn(C3CCOCC3)c2c1` [Example 11b, 6-(2-Dimethylaminoethyl)-1-(tetrahydropyran4-yl)-indole], which inhibition at 0.1 µM is on record?
The inhibition at 0.1 µM was over 90%.

Which inhibition at 0.1 µM does the source give for `CN1CC=C(c2ccc3ccn(-c4ccsc4)c3c2)CC1` [Example 19c, 6-(N-Methyl-1,2,5,6-tetrahydropyridin-4-yl)-1-(3-thienyl)-indole] here?
Its inhibition at 0.1 µM is over 75%.

Which inhibition at 0.1 µM does the source give for `CC(C)n1ccc2ccc(CCN(C)C)cc21` [Example 2, 6-(2-(N,N-Dimethylamino)ethyl)-1-isopropyl-indole] here?
Its inhibition at 0.1 µM is over 90%.

Biological target: T1, 5-HT1D receptor
Assay: Functional assay: inhibition of forskolin-stimulated adenyl cyclase (cAMP) in CHO cells
Type: cell-based
Conditions: CHO cells stably expressing the 5-HT1D receptor; test compound at 100 nM and 10 μM
Method: The 5HT1D and 5HT1B receptor subtypes respond to serotonin and other agonists by reducing adenyl cyclase mediated production of cyclic AMP. Particular test compounds were assayed for their ability to inhibit adenyl cyclase activity using the procedure described below. Forskolin was used to elevate the basal adenyl cyclase activity.
Compounds acting as antagonists at the 5HT1D and 5HT1B receptor subtypes will antagonize the agonist effect of serotonin and thus, will block the serotonin-induced inhibition of forskolin-stimulated adenyl cyclase activity. […]
The culture media of each well was removed, and the wells were washed once with serum free media. […] Basal adenyl cyclase activity was determined from wells with only SFM+IBMX media added.
The cells were then incubated at 37° C. for 30 minutes in a CO2 incubator. […] The pellets were discarded and the supernatants were stored at 4° C. until assayed for cAMP concentration. cAMP content for each extract was determined in duplicate by EIA (enzyme-immunoassay) using the Amersham Biotrak cAMP EIA kit (Amersham RPN 225).
Total inhibition (Io) of forskolin-stimulated adenyl cyclase activity by serotonin was determined as the difference in concentration of cAMP in the forskolin-treated cells (Cf) and serotonin-forskolin treated cells (Cd). […]

`CC(C)n1ccc2ccc(CCN(C)C)cc21` [Example 2, 6-(2-(N,N-Dimethylamino)ethyl)-1-isopropyl-indole] was tested. Which “effect on forskolin stimulated production of cAMP (agonist activity)” value did it give?
Its value is “caused a decrease in the forskolin stimulated production of cAMP”.
